Laboratory results from patent US12178791B2, “Haloallylamine sulfone derivative inhibitors of lysyl oxidases and uses thereof” (Syntara Limited, priority 2018, dated 2024).
Counter-ions that a name gives are not always drawn. Like-named read-outs stand apart in the source and are kept apart here.

Key:
[1] = target: Bovine LOX (Bos taurus (Bovine), UniProt P33072); assay: LOX inhibition, Amplex Red oxidation assay; assay type: biochemical; details: 30 min preincubation at 37 °C, putrescine substrate
Sequence of Bovine LOX (P33072 170-418): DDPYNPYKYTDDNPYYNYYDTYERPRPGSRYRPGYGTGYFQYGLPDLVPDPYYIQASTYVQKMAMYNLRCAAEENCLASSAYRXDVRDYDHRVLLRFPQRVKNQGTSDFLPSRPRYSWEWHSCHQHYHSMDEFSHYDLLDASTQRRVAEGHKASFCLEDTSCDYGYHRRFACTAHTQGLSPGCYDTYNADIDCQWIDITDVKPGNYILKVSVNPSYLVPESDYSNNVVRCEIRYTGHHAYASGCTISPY
Procedure, shortened: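 Bovine LOX in 1.2 M urea, 50 mM sodium borate pH 8.2, with 1 μM mofegiline and 0.5 mM pargyline unless recombinant or purified. The added mix held putrescine at twice KM (20 mM for LOX), 120 μM Amplex Red and 1.5 U/mL HRP.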

[2] = target: T1, LOXL2 (Homo sapiens (Human), UniProt Q9Y4K0); assay: LOXL2 inhibition, Amplex Red oxidation assay; assay type: biochemical; details: 30 min preincubation at 37 °C, putrescine substrate
T1 sequence (Q9Y4K0 26-774): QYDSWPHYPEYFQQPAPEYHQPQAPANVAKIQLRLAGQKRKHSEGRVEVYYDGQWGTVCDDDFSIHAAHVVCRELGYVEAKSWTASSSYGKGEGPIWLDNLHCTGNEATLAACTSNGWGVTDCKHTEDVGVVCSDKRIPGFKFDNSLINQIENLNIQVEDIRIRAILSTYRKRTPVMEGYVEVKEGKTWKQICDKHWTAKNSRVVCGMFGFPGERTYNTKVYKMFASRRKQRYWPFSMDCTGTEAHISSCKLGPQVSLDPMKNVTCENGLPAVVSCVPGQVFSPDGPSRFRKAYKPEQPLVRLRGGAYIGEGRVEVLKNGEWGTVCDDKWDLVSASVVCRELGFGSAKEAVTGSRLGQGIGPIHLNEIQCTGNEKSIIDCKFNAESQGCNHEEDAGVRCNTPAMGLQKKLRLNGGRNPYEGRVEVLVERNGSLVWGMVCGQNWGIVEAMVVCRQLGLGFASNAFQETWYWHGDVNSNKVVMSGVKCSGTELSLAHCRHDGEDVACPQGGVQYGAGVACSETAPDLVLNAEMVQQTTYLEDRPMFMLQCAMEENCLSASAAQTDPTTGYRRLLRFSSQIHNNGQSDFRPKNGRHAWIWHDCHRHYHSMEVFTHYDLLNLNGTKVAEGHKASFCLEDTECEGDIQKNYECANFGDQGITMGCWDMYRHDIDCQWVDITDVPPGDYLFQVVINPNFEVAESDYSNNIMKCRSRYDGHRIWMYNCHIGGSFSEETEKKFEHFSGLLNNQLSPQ
Procedure, shortened: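 LOXL2 in 1.2 M urea, 50 mM sodium borate pH 8.2 was preincubated with compound (11-point curve) for 30 min at 37 °C; mofegiline/pargyline were added only for non-purified enzyme. Reaction mix held 2× KM putrescine (10 mM), 120 μM Amplex Red and 1.5 U/mL HRP. H2O2 fluorescence (ex 565/em 590 nm) was read over 30 min, and IC50 came from slopes.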

[3] = target: LOXL1 (Homo sapiens (Human), UniProt Q08397); assay: Jump dilution experiment, sustained inhibition of LOXL1; assay type: biochemical; details: jump dilution after 40 min at 37 °C with 10× or 30× IC50; vs non-inhibited controls;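 also: 30× IC50 used only where needed so inhibitor exceeds enzyme concentration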
Sequence of LOXL1 (Q08397 96-574, species assumed): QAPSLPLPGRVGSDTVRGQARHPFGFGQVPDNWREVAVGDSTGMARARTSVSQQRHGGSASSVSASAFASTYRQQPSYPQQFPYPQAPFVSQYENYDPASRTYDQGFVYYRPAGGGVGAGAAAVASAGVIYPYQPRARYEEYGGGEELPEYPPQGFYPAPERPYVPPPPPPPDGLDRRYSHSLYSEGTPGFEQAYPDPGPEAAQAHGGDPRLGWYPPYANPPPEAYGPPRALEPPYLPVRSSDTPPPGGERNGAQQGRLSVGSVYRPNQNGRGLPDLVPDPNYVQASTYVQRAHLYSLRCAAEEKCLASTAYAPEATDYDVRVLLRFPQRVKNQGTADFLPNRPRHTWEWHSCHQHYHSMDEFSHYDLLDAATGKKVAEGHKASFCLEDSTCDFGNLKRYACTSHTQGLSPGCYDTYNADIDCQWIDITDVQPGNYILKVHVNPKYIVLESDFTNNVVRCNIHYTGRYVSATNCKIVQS
Procedure: (§1) Jump Dilution experiment: The assay was developed using a 96 well format and the starting enzyme concentration was set 100 times higher than for the inhibition studies. […] After the incubation, the mixture was diluted 50× in assay buffer, followed by a further 2× dilution in Amplex Red-horseradish peroxidase-putrescine reaction mix (same as per the inhibition studies) prior to the fluorescent measurement. Results were expressed in % recovery of the signal after a specified time by comparison with non-inhibited controls.

[4] = target: Human recombinant SSAO/VAP-1 (Homo sapiens (Human), UniProt Q16853); assay: Inhibition of human recombinant SSAO/VAP-1; assay type: biochemical
Sequence of Human recombinant SSAO/VAP-1 (Q16853 34-763): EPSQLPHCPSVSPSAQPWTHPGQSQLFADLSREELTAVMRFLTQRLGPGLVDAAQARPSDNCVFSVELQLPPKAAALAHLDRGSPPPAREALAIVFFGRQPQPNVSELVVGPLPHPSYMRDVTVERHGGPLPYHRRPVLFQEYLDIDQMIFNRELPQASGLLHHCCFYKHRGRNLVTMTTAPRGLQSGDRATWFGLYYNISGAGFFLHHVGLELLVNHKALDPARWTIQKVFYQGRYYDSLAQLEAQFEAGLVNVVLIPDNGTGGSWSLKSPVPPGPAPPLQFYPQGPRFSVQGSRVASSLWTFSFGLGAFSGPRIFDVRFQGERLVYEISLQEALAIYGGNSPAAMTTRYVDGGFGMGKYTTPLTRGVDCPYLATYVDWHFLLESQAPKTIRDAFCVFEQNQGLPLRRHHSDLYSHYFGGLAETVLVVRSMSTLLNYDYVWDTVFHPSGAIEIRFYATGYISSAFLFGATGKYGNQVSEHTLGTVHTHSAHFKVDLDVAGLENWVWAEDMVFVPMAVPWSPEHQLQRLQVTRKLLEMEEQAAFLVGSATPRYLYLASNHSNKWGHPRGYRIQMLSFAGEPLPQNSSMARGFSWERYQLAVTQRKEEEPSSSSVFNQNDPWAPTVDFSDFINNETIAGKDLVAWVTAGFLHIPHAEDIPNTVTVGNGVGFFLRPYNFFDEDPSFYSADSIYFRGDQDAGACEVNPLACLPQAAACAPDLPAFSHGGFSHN
Procedure, shortened: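 Purified enzyme (residues 34-763, expressed in CHO Lec8 cells; 0.25 μg/mL in 0.1 M sodium phosphate pH 7.4) was preincubated with compound 30 min at 37 °C. An added mix held 600 μM benzylamine, 120 μM Amplex Red and 1.5 U/mL HRP. Fluorescence (ex 565/em 590 nm) was read every 2.5 min for 30 min at 37 °C, and IC50 was derived from kinetic slopes over 4-11-point curves.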

[5] = target: rhSSAO (Homo sapiens (Human), UniProt Q16853); assay: Measurement of substrate turnover by SSAO; assay type: biochemical; details: compound 2.5 mM, relative to background (dimethyl sulfoxide only)
Sequence of rhSSAO (Q16853 whole entry): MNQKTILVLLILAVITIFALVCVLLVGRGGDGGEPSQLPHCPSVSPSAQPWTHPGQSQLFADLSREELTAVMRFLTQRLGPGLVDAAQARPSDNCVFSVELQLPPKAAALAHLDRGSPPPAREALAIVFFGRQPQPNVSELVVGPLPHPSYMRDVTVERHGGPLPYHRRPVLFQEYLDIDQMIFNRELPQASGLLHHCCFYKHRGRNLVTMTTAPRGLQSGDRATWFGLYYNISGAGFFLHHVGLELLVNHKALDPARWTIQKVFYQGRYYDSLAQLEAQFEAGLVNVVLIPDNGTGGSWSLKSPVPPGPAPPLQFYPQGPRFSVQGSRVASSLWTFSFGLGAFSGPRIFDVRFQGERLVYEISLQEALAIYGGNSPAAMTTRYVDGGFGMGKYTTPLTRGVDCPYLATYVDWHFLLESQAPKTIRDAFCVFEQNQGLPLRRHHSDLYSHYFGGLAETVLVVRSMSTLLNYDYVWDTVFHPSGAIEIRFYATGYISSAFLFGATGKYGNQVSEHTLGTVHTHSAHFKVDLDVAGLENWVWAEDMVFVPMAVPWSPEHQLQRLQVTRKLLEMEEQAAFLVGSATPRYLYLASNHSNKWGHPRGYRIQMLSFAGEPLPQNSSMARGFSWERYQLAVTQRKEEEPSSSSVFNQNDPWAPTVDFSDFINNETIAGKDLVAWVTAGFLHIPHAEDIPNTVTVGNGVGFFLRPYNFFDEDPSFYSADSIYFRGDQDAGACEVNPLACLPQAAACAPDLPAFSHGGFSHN
Procedure: In brief, the assay employed determines the substrate propensity of a compound relative to background (dimethyl sulfoxide only). Compound oxidation by rhSSAO was measured by fluorometric assay (Holt and Palcic, 2006). Briefly, rhSSAO was incubated for 2 hours at 37° C. in HEPES buffer before the addition of an equal volume of Amplex Red ([…]), horseradish peroxidase (4 U/ml), and Compound (2.5 mM) in the same buffer. The kinetics of the formation of resorufin was measured immediately using Optima reader (BMG Labtech GmbH, Ortenburg, Germany), at 37° C.

[6] = target: T1, LOXL2; assay: Jump dilution experiment, sustained inhibition of LOXL2; assay type: biochemical; details: jump dilution after 40 min at 37 °C with 10× or 30× IC50; vs non-inhibited controls;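 also: 30× IC50 used only where needed so inhibitor exceeds enzyme concentration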
Procedure: as §1

[7] = target: Recombinant human MAO-B (Homo sapiens (Human), UniProt P27338); assay: Inhibition of human recombinant MAO-B; assay type: biochemical; details: benzylamine 100 μM
Sequence of Recombinant human MAO-B (P27338 whole entry): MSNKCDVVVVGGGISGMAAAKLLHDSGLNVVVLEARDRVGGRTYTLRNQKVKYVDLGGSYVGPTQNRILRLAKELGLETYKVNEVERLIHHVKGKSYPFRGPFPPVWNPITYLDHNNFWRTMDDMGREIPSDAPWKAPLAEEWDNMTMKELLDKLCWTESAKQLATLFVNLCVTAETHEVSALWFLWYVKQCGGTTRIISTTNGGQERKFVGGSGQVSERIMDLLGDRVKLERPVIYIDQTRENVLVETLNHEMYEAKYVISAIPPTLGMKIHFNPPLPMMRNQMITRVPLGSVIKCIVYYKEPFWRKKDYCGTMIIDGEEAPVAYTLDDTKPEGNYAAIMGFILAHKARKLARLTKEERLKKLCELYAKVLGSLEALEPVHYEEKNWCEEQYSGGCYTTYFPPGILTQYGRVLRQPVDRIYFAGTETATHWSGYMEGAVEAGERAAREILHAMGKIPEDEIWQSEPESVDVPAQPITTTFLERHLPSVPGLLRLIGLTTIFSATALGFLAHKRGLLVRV
Procedure: The specificity of the compounds of this invention was tested by determining their ability to inhibit MAO-B activities in vitro. Recombinant human MAO-B (0.06 mg/mL; Sigma Aldrich) was used as source of MAO-B enzyme activities. The assay was performed in a similar way as for human SSAO/VAP-1 (Example 28) except, the substrate benzylamine was used at 100 μM.

[8] = system: GATA1low mice; assay: Mouse model of primary myelofibrosis; assay type: in vivo; details: 15 mg/kg i.p. four times a week for 10 weeks
Procedure: Fifteen to sixteen week old GATA1low male and female mice were intra-peritoneal injected with either vehicle (olive oil), or Compound 19 at a dose of 15 mg/kg, four times a week for 10 weeks. The mice were then sacrificed and the spleens and femurs were harvested for histology and analysis (FIGS. 7(a-e) and FIGS. 8(a-d)).

[9] = target: LOX (Rattus norvegicus (Rat), UniProt P16636); details: CIA rats; cited from earlier work
Sequence of LOX (P16636 163-411): as the sequence (P33072 170-418) above, with T10S, P27S, Y31H, A64S, X84A, N188A, K202Q counted along it

[10] = in vivo; cited from earlier work
[11] = target: surgery induced systemic LOX (Mus musculus (Mouse), UniProt P28301); details: in vivo; cited from earlier work
Sequence of surgery induced systemic LOX (P28301 163-411): as the sequence (P33072 170-418) above, with T10S, Y31N, A64S, X84A, S142N, N188A, K202Q, S224T, E231D counted along it

[12] = system: SiHa cervical cancer cells; details: cited from earlier work
[13] = system: desmoplastic ovarian tumour; details: mouse, in vivo; cited from earlier work
[14] = system: MMTV-PyMT breast cancer; details: in vivo; cited from earlier work
[15] = 30 min preincubation at 37 °C, benzylamine 600 μM, read-out: SSAO/VAP-1 Activity IC50

SMILES | IC50 [1] [µM] | IC50 [2] [µM] | LOXL1 - Recovery of activity. (%) [3] [%] | IC50 [4, 15] [µM] | LOXL2 - Recovery of activity. (%) [6] [%] | IC50 [7] [µM] | other results
NC/C=C(\F)CS(=O)(=O)c1cccnc1 [Compound 31, (Z)-3-fluoro-4-(pyridin-3-ylsulfonyl)but-2-en-1-amine dihydrochloride] | < 10 | < 1 | 8.2 | > 30 | – | – | IC50 ([4]; second Table 6 (Example 38), read-out: Recombinant human SSAO (rhSSAO) inhibition (IC50)): 27 µM; Substrate activity for rhSSAO [5]: no significant turnover
NC/C=C(\F)CS(=O)(=O)c1ccccc1Cl [Compound 19, (Z)-4-(2-chlorophenylsulfonyl)-3-fluorobut-2-en-1-amine hydrochloride] | < 10 | < 1 | 7.8 | > 30 | 7.9 | > 30 | Bone marrow (BM) and splenic fibrosis ([8]; vs vehicle): significantly decreased; Morphologic BM megakaryocytes (MKs) on H&E stain ([8]; p<0.001 vs vehicle): 24.65±0.6 per 20× field; platelet count post-treatment ([8]; p<0.05 vs vehicle): 77.5±4.4 K/uL; spleen weights adjusted to body weight ([8]; p<0.05 vs vehicle): 242.25 ± 18 mg
CN(C)S(=O)(=O)c1ccc(COc2ccccc2S(=O)(=O)C/C(F)=C/CN)cc1 [Compound 5, (Z)-4-((2-((4-amino-2-fluorobut-2-en-1-yl)sulfonyl)phenoxy)methyl)-N,N-dimethylbenzenesulfonamide hydrochloride] | < 1 | < 1 | 3.6 | > 30 | 10.0 | > 30 | –
N#CCCN [BAPN, β-aminopropionitrile] | < 10 | < 1 | – | > 30 | – | > 30 | inflammation, synovial hyperplasia, angiogenesis and expression of MMP-2 and MMP-9 [9]: attenuate; tolerability in human patients with scleroderma [10]: poorly tolerated; metastasis and survival after surgery induced systemic LOX [11]: reducing metastasis and increasing survival; increased invasion in vitro under hypoxic/anoxic conditions [12]: repressed; lung metastasis [13]: decreased; survival [13]: significantly increased
CS(=O)(=O)c1cc(-c2ccccc2)cc(S(=O)(=O)c2ccc(CN)s2)c1 [CCT365623] | – | – | – | – | – | – | metastasis and survival [14]: reduce metastasis and increase survival
